Source: paper PMC1871596, “Requirement of aggregation propensity of Alzheimer amyloid peptides for neuronal cell surface binding” (BMC Neuroscience, 2007)

What was measured:
[1] = unlabelled mutant; cited from earlier work
Text: We also studied a double mutant (F19S/L34P) of Aβ42 (hereon referred to as 'mutant peptide'), which was discovered through a GFP-based screen for mutations that reduce the aggregation p ...

[2] = tested on: NGF differentiated PC12 cells; assay: Blocking the binding of Aβ42 to the surface of live PC12 cells (flow cytometry); assay type: cell-based, rat; conditions: cells pre-treated with the reagent, then TMR-labelled Aβ42 1.5 μM for 1-2 hours, trypsin 10 μg/mL 15 min then SBTI, Figure 6A
Experimental: NGF differentiated PC12 cells treated with Aβ (1.5 μM) were washed once with cold D-PBS, followed by mechanical detachment with D-PBS. Collected cells were centrifuged (200 × g for 1 minute) and resuspended in cold flow buffer containing 5 mM EDTA and 1% BSA (Fisher Scientific, Nepean, ON) in D-PBS. Samples were immediately analyzed with a FACS Calibur flow cytometer (Becton Dickinson, Mississauga, ON). TMR-labelled samples were detected with 585/42 filter collecting 5 × 10^4 events per sample using 100–300 events/s flow rate. Cell viability was assessed with 25 μg/mL 7-Aminoactinomycin D (7-AAD) treatment for 5 minutes and detected with a long pass 650 nm filter. Data collection and analysis were performed using Cell Quest version 3.3 and figures were created using WinMDI version 2.8 software.
Various treatments to block or remove lipid, carbohydrate, or protein components from the surface of live PC12 cells were performed and their effects on Aβ binding was examined. NGF differentiated PC12 cells were treated with 100 ng/mL FITC labelled annexin V (to block negatively charged phospholipids) or 10 μg/mL FITC labelled cholera toxin subunit B (to block GM1 ganglioside) for 20 minutes before addition of Aβ42 (final concentration 1.5 μM) for two hours. […] After Aβ42 addition, treated cells and untreated control cells were analyzed using flow cytometry.

DAEFRHDSGYEVHHQKLVSFAEDVGSNKGAIIGPMVGGVVIA [double mutant (F19S/L34P) of Aβ42, double mutant (F19S/L34P) of Aβ42 with reduced aggregation propensity, unlabelled]
aggregation state of the mutant [1]: soluble unstructured monomeric peptide

B1: trypsin: protease (9590 units/mg) used to remove cell surface proteins from PC12 cells (protein, UniProt P00760 24-246, looked up)
Serine protease 1: IVGGYTCGANTVPYQVSLNSGYHFCGGSLINSQWVVSAAHCYKSGIQVRLGEDNINVVEGNEQFISASKSIVHPSYNSNTLNNDIMLIKLKSAASLNSRVASISLPTSCASAGTQCLISGWGNTKSSGTSYPDVLKCLKAPILSDSSCKSAYPGQITSNMFCAGYLEGGKDSCQGDSGGPVVCSGKLQGIVSWGSGCAQKNKPGVYTKVCNYVSWIKQTIASN
effect of cell surface treatment on Aβ42 binding [2]: significantly decreased
